# Patent publication US20250290117A1, “MOLECULAR PHENOTYPIC ANTIMICROBIAL SUSCEPTIBILITY TESTING” (priority 2024, published 2025)
# Key:
# Type in all cases: cell-based
# [1] = test system: pathogens of clinical samples; assay: Molecular phenotypic antimicrobial susceptibility test of clinical samples, direct PCR without a separate DNA purification step (Table 6)
# Method in brief: (§1)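 Semi-quantitative PCR measures growth after exposure, so sensitivity means prevented growth and resistance means allowed growth. Exposure lasts 12-16 hours at single or multiple breakpoint concentrations in Mueller Hinton Broth, with the inoculum at 0.5 McFarland.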
# [2] = test system: pathogens of clinical samples; assay: Molecular phenotypic antimicrobial susceptibility test of clinical samples, extraction DNA purification step prior to PCR (Table 6)
# Method in brief: as §1
# Escherichia coli [3] = assay: Traditional culture-based antimicrobial susceptibility test
# Method in brief: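 E. coli isolates underwent conventional growth, isolation and exposure to antimicrobials, giving a culture-based susceptibility call for each agent.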
# Escherichia coli [4] = assay: Molecular phenotypic antimicrobial susceptibility test (extraction or DNA purification prior to PCR)
# Method in brief: as §1
# [5] = E. coli, clinical sample of r10-r24
# [6] = E. coli, clinical sample of r158-r172
# [7] = K. aerogenes, clinical sample of r136-r150
# [8] = K. pneumoniae, clinical sample of r121-r135
# [9] = M. morganii, clinical sample of r55-r69
# [10] = M. morganii, clinical sample of r70-r84
# [11] = P. mirabilis, clinical sample of r25-r39
# [12] = P. mirabilis, clinical sample of r40-r54
# [13] = S. aureus, clinical sample of r85-r92
substance,measurement,setting,value
Gentamicin,Molecular Antibiotic Susceptibility Result,[1]; [5],Sensitive (Antimicrobial wells with pathogen load detected below the control wells (typically >2 cycle thresholds later) may be reported as Sensitive)
same,Ct,"[1]; E. coli, clinical sample of r10-r24, Ct control avg 12.97",23.559
same,Molecular Antibiotic Susceptibility Result,[1]; [6],Sensitive (Antimicrobial wells with pathogen load detected below the control wells (typically >2 cycle thresholds later) may be reported as Sensitive)
same,Ct,"[1]; E. coli, clinical sample of r158-r172, Ct control avg 12.894",28.667
same,Molecular Antibiotic Susceptibility Result,[1]; [7],Sensitive (Antimicrobial wells with pathogen load detected below the control wells (typically >2 cycle thresholds later) may be reported as Sensitive)
same,Ct,"[1]; K. aerogenes, clinical sample of r136-r150, Ct control avg 13.854",31.347
same,Molecular Antibiotic Susceptibility Result,[1]; [8],Sensitive (Antimicrobial wells with pathogen load detected below the control wells (typically >2 cycle thresholds later) may be reported as Sensitive)
same,Ct,"[1]; K. pneumoniae, clinical sample of r121-r135, Ct control avg […]",23.5
same,Molecular Antibiotic Susceptibility Result,[1]; [9],Sensitive (Antimicrobial wells with pathogen load detected below the control wells (typically >2 cycle thresholds later) may be reported as Sensitive)
same,Ct,"[1]; M. morganii, clinical sample of r55-r69, Ct control avg 12.09",32.648
same,Molecular Antibiotic Susceptibility Result,[1]; [10],Sensitive (Antimicrobial wells with pathogen load detected below the control wells (typically >2 cycle thresholds later) may be reported as Sensitive)
same,Ct,"[1]; M. morganii, clinical sample of r70-r84, Ct control avg 11.677",30.206
same,Molecular Antibiotic Susceptibility Result,[1]; [11],Sensitive (Antimicrobial wells with pathogen load detected below the control wells (typically >2 cycle thresholds later) may be reported as Sensitive)
same,Ct,"[1]; P. mirabilis, clinical sample of r25-r39, Ct control avg 11.801",22.67
same,Molecular Antibiotic Susceptibility Result,[1]; [12],Sensitive (Antimicrobial wells with pathogen load detected below the control wells (typically >2 cycle thresholds later) may be reported as Sensitive)
same,Ct,"[1]; P. mirabilis, clinical sample of r40-r54, Ct control avg 10.06",30.321
same,Molecular Antibiotic Susceptibility Result,[1]; [13],Sensitive (Antimicrobial wells with pathogen load detected below the control wells (typically >2 cycle thresholds later) may be reported as Sensitive)
same,Ct,"[1]; S. aureus, clinical sample of r85-r92, Ct control avg 20.309",31.422
same,Molecular Antibiotic Susceptibility Result,[2]; [5],Sensitive (Antimicrobial wells with pathogen load detected below the control wells (typically >2 cycle thresholds later) may be reported as Sensitive)
same,Ct,"[2]; E. coli, clinical sample of r10-r24, Ct Control Avg 18.112",28.366
same,Molecular Antibiotic Susceptibility Result,[2]; [6],Sensitive (Antimicrobial wells with pathogen load detected below the control wells (typically >2 cycle thresholds later) may be reported as Sensitive)
same,Ct,"[2]; E. coli, clinical sample of r158-r172, Ct Control Avg 20.146",32.759
same,Molecular Antibiotic Susceptibility Result,[2]; [7],Sensitive (Antimicrobial wells with pathogen load detected below the control wells (typically >2 cycle thresholds later) may be reported as Sensitive)
same,Ct,"[2]; K. aerogenes, clinical sample of r136-r150, Ct Control Avg 19.994",36.1
same,Molecular Antibiotic Susceptibility Result,[2]; [8],Sensitive (Antimicrobial wells with pathogen load detected below the control wells (typically >2 cycle thresholds later) may be reported as Sensitive)
same,Ct,"[2]; K. pneumoniae, clinical sample of r121-r135, Ct Control Avg 24.272",44.195
same,Molecular Antibiotic Susceptibility Result,[2]; [9],Sensitive (Antimicrobial wells with pathogen load detected below the control wells (typically >2 cycle thresholds later) may be reported as Sensitive)
same,Ct,"[2]; M. morganii, clinical sample of r55-r69, Ct Control Avg 28.86",Undet
same,Molecular Antibiotic Susceptibility Result,[2]; [10],Sensitive (Antimicrobial wells with pathogen load detected below the control wells (typically >2 cycle thresholds later) may be reported as Sensitive)
same,Ct,"[2]; M. morganii, clinical sample of r70-r84, Ct Control Avg 27.053",Undet
same,Molecular Antibiotic Susceptibility Result,[2]; [11],Sensitive (Antimicrobial wells with pathogen load detected below the control wells (typically >2 cycle thresholds later) may be reported as Sensitive)
same,Ct,"[2]; P. mirabilis, clinical sample of r25-r39, Ct Control Avg 26.064",28.953
same,Molecular Antibiotic Susceptibility Result,[2]; [12],Sensitive (Antimicrobial wells with pathogen load detected below the control wells (typically >2 cycle thresholds later) may be reported as Sensitive)
same,Ct,"[2]; P. mirabilis, clinical sample of r40-r54, Ct Control Avg 26.987",37.234
same,Molecular Antibiotic Susceptibility Result,[2]; [13],Sensitive (Antimicrobial wells with pathogen load detected below the control wells (typically >2 cycle thresholds later) may be reported as Sensitive)
same,Ct,"[2]; S. aureus, clinical sample of r85-r92, Ct Control Avg 24.32",Undet
same,Traditional Culture Results,Escherichia coli [3]; E. coli #1 - WDCM 00090 - 6.2×E3,Sensitive
same,Traditional Culture Results,Escherichia coli [3]; E. coli #2 - WDCM 00090 - 6.2×E3,Sensitive
same,Traditional Culture Result,Escherichia coli [3]; E. coli isolate 1 (Table 3),Sensitive
same,Traditional Culture Result,Escherichia coli [3]; E. coli isolate 2 (Table 3),Sensitive
same,Traditional Culture Result,Escherichia coli [3]; E. coli isolate 3 (Table 3),Sensitive
same,Traditional Culture Result,Escherichia coli [3]; E. coli isolate 4 (Table 3),Sensitive
same,Traditional Culture Result,Escherichia coli [3]; E. coli isolate 5 (Table 3),Sensitive
same,Traditional Culture Result,Escherichia coli [3]; E. coli isolate JJ1887,Resistant
same,Ct at Sensitive Breakpoint,"Escherichia coli [4]; E. coli isolate 1, Ct at control (average) 21.238",22.585
same,Molecular Antimicrobial Susceptibility Result,"Escherichia coli [4]; E. coli isolate 1, at sensitive breakpoint",Resistant
same,Ct at Sensitive Breakpoint,"Escherichia coli [4]; E. coli isolate 2, Ct at control (average) 21.270",24.165
same,Molecular Antimicrobial Susceptibility Result,"Escherichia coli [4]; E. coli isolate 2, at sensitive breakpoint",Sensitive (Antimicrobial wells with pathogen load detected below the control wells (typically >2 cycle thresholds later) may be reported as Sensitive)
same,Ct at Sensitive Breakpoint,"Escherichia coli [4]; E. coli isolate 3, Ct at control (average) 22.0995",25.112
same,Molecular Antimicrobial Susceptibility Result,"Escherichia coli [4]; E. coli isolate 3, at sensitive breakpoint",Sensitive (Antimicrobial wells with pathogen load detected below the control wells (typically >2 cycle thresholds later) may be reported as Sensitive)
same,Ct at Sensitive Breakpoint,"Escherichia coli [4]; E. coli isolate 4, Ct at control (average) 17.5733",22.64
same,Molecular Antimicrobial Susceptibility Result,"Escherichia coli [4]; E. coli isolate 4, at sensitive breakpoint",Sensitive (Antimicrobial wells with pathogen load detected below the control wells (typically >2 cycle thresholds later) may be reported as Sensitive)
same,Ct at Sensitive Breakpoint,"Escherichia coli [4]; E. coli isolate 5, Ct at control (average) 21.0933",25.77
same,Molecular Antimicrobial Susceptibility Result,"Escherichia coli [4]; E. coli isolate 5, at sensitive breakpoint",Sensitive (Antimicrobial wells with pathogen load detected below the control wells (typically >2 cycle thresholds later) may be reported as Sensitive)
